Reference: patent publication US8399452B2, “Dibenzo[b,f][1,4]oxazepin-11-yl-N-hydroxybenzamides as HDAC inhibitors” (Methylgene Inc., priority 2006, dated 2013)
Read-outs that look alike come from different tables or passages of the source.

Tests used:
[1] = test system: HDAC in primary mouse cortical neurons; assay: Whole-Cell Histone Deacetylase (HDAC) Inhibition Assay in Primary Mouse Cortical Cultures; type: cell-based
Description: Primary neocortical cultures are established through the dissection of the neocortex from E17 embryos harvested from time-pregnant Balb/C mice. Following dissection, the neocortical tissue specimens undergo digestion by incubation at 37° C. for 10 minutes in dissection medium (1×HBSS/10 mM HEPES/1 mM Sodium Pyruvate) supplemented with (0.25%) Trypsin and (0.1%) DNase I. Digested tissue is washed and resuspended in plating medium (NeuroBasal/10% HS/0.5 mM L-Glutamine (Invitrogen Corporation)) for trituration. Additional plating medium is added, and the contents are passed over a 70 um cell-strainer. The cell-density is quantified using a hemacytometer, and dilutions are made to allow for the plating of 50000 cells/well/100 uL in 96-well PDL-coated plates. Plates are incubated for 4-5 hours in 37° C./5% CO2-incubator, after which time the entire volume is exchanged to feeding medium (NeuroBasal/2% B-27 Serum-free supplement/0.5 mM L-Glutamine/1% Penicillin-Streptomycin (Invitrogen Corporation)). The cultures undergo two 50% fresh feeding medium exchanges at 3 days in vitro (DIV3), and again at DIV7.
Compounds for testing are resuspended in dimethyl sulphoxide (DMSO), and further diluted in DMSO for a ten-point dose-response curve, with appropriate controls. Each master plate is assayed in triplicate. […] Three DIV9 culture plates are leveled to 50 uL/well, onto which each has overlaid 50 uL/well of the diluted daughter plate. The plates are returned to the 37° C./5% CO2-incubator for 16-18 hours.
The next step of the assay involves the exposure of a HDAC colorimetric substrate, comprising an acetylated lysine side chain, to the compound-treated neuronal cultures. Based on the ability of the compound to inhibit HDAC activity in the neuronal cultures, the substrate is deacetylated by HDACs, and subsequently sensitized. […] Compound-incubated culture plates are again leveled to 50 uL/well and 2 uL/well of 7.5 mM BOC-Lys (Ac)-AMC substrate is added and thoroughly mixed. Plates are returned to the 37° C./5% CO2-incubator for 1 hour.
The final addition to the culture plates entails treatment with a Fluor de LyS™-based developer (BIOMOL Research Laboratories, Inc.) to produce a fluorophore, which is analyzed using a spectrophotometer. The developer solution (1× Fluor de Lys™/1% NP-40/1 uM TSA in HDAC Buffer Solution) is prepared, and 50 uL/well is added to each of the wells of the culture plates. […] The plates are returned to the 37° C./5% CO2-incubator for 10-15 minutes, after which time, they are removed and set in the dark at room temperature for 5-10 minutes.

[2] = target: histone deacetylase (HDAC Enzyme); assay: Inhibition of Histone Deacetylase Enzymatic Activity (Boc-Lys(Ac)-AMC, Fluor-de-Lys developer); type: biochemical
Description: The following protocol is used to assay the compounds of the invention.
The mixture is pre-incubated for 5 minutes at room temperature. The reaction is started by bringing the temperature to 37° C. and adding 16 μl substrate. Total reaction volume is 50 μl.
In the Tables 8, 9 and 10, A≦[…]<B≦0.1 μM; 0.1 μM<C≦1 μM; and 1 μM<D≦10 μM.

[3] = test system: Drosophila Huntington's Disease model flies; assay: In Vivo Drosophila Fly Assay for Treatment of Huntington's Disease (automated climbing behavior, early/late speed effect size); set-up: species or system Drosophila melanogaster; details: for Speed 1 to 7 (effect size, early speed): average speed days 1-7 vs DMSO-carrier control; for Speed 8 to 10 (effect size, late speed): average speed days 8-10 vs DMSO-carrier control
Description: The Drosophila Huntington's Disease assay used to screen compounds of the present invention followed that of WO 2007/002497, which is hereby incorporated by reference in its entirety.
Briefly, parental (model and driver) lines are maintained in sufficient quantities to provide virgins and males for assay crosses as well as perpetuating the lines. Disease model flies are maintained with the disease genes “silent”, functionally linked to a UAS enhancer element. The “driver” lines contain a GAL4 element under the control of a tissue-specific promoter. These are crossed together to generate the assay flies which have tissue-specific (i.e. CNS) expression of the disease gene(s).
Weekly assay crosses are set up with sufficient virgins and males to generate enough assay embryos for sorting. Approximately 50,000 males and 75,000 virgins are crossed in population cages. Embryos are collected for an eight hour window two days later. The embryos are then sorted onto 16 mm assay vials containing regular fly media and allowed to develop. Flies containing both the GAL4 driver element and the disease gene(s) are detected by the presence of GFP, a fluorescing protein. Approximately 10 assay flies eclose per vial, the optimal number for the behavioral assay. Once the flies eclose, they are transferred onto assay vials containing liquid Drosophila food. Similarly, control crosses are set up with virgins of the driver and males from a non-disease UAS line. Throughout fly production and the assay days, all flies are maintained at constant temperature and humidity, with preset light cycle, optimized for the particular lines and crosses.
Quality control (QC) for the parental lines is carried out weekly by collecting a sample of random male flies from each line. Single-fly PCR is carried out to ascertain the presence of the GAL4 or UAS element. If greater than 5% of the individuals lack the appropriate element, the assay cross is aborted. A second form of QC is also carried out to ensure that the GAL4 element is able to drive expression of a transgene. A sample of individual “driver” virgins is crossed to UAS-GFP males. Their progeny are visually checked for GFP expression in the appropriate tissues. Lack of GFP in greater than 4% of the crosses results in the assay being aborted.
Test compounds are weighed out and dissolved in DMSO at stock concentrations 100× what is desired in the assay and arrayed into 96-well master plates, including wells for DMSO-only controls and the positive control(s). A single well is reserved for a colored dye used to ensure proper orientation of compounds during drug dispensing and fly transfer. Replicate daughter plates for each day of the assay are stamped out. The plates are bar coded and stored at −20 C until used for the assay.
For a particular assay day, the plates are thawed and a robotic liquid handler is used to dilute the test compound into the liquid fly food and dispense the mixture into the assay vials. For Huntington Disease (HD) models, eight replicates per single treatment (one compound, one concentration) are dispensed. Fresh test compound treated media is made daily during an assay.
On the day the assay flies eclose (emerge from […]; assay Day 0) they are transferred to the test compound treated vials. On assay Day 1, the flies are transferred onto clean test compound treated vials one hour before assay time. They are then placed in the assay machine to acclimate to the appropriate climate conditions.
The assay machine is an environmentally-enclosed and controlled robot that can maintain user-set temperature and humidity. The machine can hold up to sixteen 96-vial racks in four quadrants, for a total of 1536 vials. There are four camera stations, which hold four vials each and a CCD camera for movie capture. […]

[4] = Table 10, whole-cell, read-out: HDAC Inhibition (IC50 μM) WC mouse cortical neurons
[5] = Table 10, read-out: HDAC Inhibition (IC50 μM) HDAC Enzyme

Row | IC50 [1, 4] [µM] | IC50 [2, 5] [µM] | Compound | further results
1 | < 1 | 0.05 to 0.1 | O=C(NO)c1ccc(OCCN2C(=O)c3ccccc3Oc3ccccc32)c(F)c1 | 
2 | < 1 | < 0.05 | O=C(NO)c1ccc(OCCN2C(=O)c3cc(F)ccc3Oc3ccccc32)cc1 | 
3 | 1 to 5 | < 0.05 | O=C(NO)c1ccc(OCCN2C(=O)c3ccccc3Oc3cc(Cl)ccc32)cc1 | 
4 |  |  | O=C(NO)c1cnc(N2C3CNC(C3)C2c2cc(C(F)(F)F)ccn2)nc1 (stereo not drawn) | Speed 1 to 7 (effect size, early speed) ([3]; 30 uM): 0.468; Speed 8 to 10 (effect size, late speed) ([3]; 30 uM): 0.087; Speed 1 to 7 (effect size, early speed) ([3]; 100 uM): 0.82; Speed 8 to 10 (effect size, late speed) ([3]; 100 uM): 0.82; Speed 1 to 7 (effect size, early speed) ([3]; 300 uM): 0.3; Speed 8 to 10 (effect size, late speed) ([3]; 300 uM): 0.54
5 | > 15 | 0.1 to 1 | O=C(NO)c1cccc(OCCN2C(=O)c3ccccc3Oc3ccccc32)c1 | 
6 | < 1 | < 0.05 | O=C(NO)c1ccc(OCCN2C(=O)c3ccccc3Oc3ccccc32)cc1 | 
7 | < 1 | < 0.05 | CN1CCC2=C(C1)Oc1ccccc1N(CCOc1ccc(C(=O)NO)cc1)C2=O | 
8 | < 1 | < 0.05 | O=C(NO)c1ccc(OCCN2C(=O)CCOc3ccccc32)cc1 | 
9 | 1 to 5 | < 0.05 | O=C(NO)c1ccc(OCCN2CCOc3ccccc3C2=O)cc1 | 
10 | < 1 | < 0.05 | O=C(NO)c1ccc(OCCN2C(=O)c3cccnc3Oc3ccccc32)cc1 | 
11 | < 1 | < 0.05 | O=C(NO)c1ccc(OCCN2C(=O)c3ccncc3Oc3ccccc32)cc1 | 
12 |  |  | O=C(NO)c1ccc(C2=Nc3ccccc3Oc3ccsc32)cc1 [(Z)-4-(benzo[b]thieno[2,3-f][1,4]oxazepin-10-yl)-N-hydroxybenzamide] | IC50 ([1]; whole cell, read-out: HDAC Inhibtion (IC50 μM) WC mouse cortical neurons): 1 to 5 µM; IC50 ([2]; read-out: HDAC Inhibtion (IC50 μM) HDAC Enzyme): < 0.05 µM
13 |  | < 0.05 | O=C(CCCCCCn1c(=O)c2ccccc2c2ccccc21)NO [N-hydroxy-7-(6-oxophenanthridin-5(6H)-yl)heptanamide] | 
14 |  | < 0.05 | O=C(CCCCCCN1C(=O)c2ccccc2Oc2ccccc21)NO [N-hydroxy-7-(11-oxodibenzo[b,f][1,4]oxazepin-10(11H)-yl)heptanamide] | 
15 |  | < 0.05 | O=C(CCCCCCN1C(=O)c2ccccc2Sc2ccccc21)NO [N-hydroxy-7-(11-oxodibenzo[b,f][1,4]thiazepin-10(11H)-yl)heptanamide] | 
16 |  | < 0.05 | O=C(CCCCCCOc1nc2ccccc2c2ccccc12)NO [N-hydroxy-7-(phenanthridin-6-yloxy)heptanamide] | 
17 |  | 0.05 to 0.1 | O=C(CCCCCCCN1C(=O)c2ccccc2Oc2ccccc21)NO [N-hydroxy-8-(11-oxodibenzo[b,f][1,4]oxazepin-10(11H)-yl)octanamide] | 
18 |  | 1 to 10 | O=C(NO)c1cc2c(cn1)[nH]c1ccccc12 [N-hydroxy-9H-pyrido[3,4-b]indole-3-carboxamide] | 
19 |  | < 0.05 | O=CN(O)CCCCCCN1C(=O)c2ccccc2Oc2ccccc21 [N-hydroxy-N-(6-(11-oxodibenzo[b,f][1,4]oxazepin-10(11H)-yl)hexyl)formamide] | 
20 |  | 0.05 to 0.1 | O=C(NO)c1cnc(N2CCCN(C(=O)OCc3ccccc3)CC2)nc1 [benzyl 4-(5-(hydroxycarbamoyl)pyrimidin-2-yl)-1,4-diazepane-1-carboxylate] | 
21 |  | 0.1 to 1 | (Z)-N-(5H-dibenzo[b,f]azepin-5-yl)methyl)benzyl)-N-hydroxyformamide | 

Row | Compound | IC50 [1, 4] [µM] | IC50 [2, 5] [µM] | further results
22 | O=C(NO)c1ccc(OCC(=O)N2Cc3ccccc3Oc3ccccc32)cc1 | 1 to 5 | 0.1 to 1 | 
